Measured values taken from US8765746B2 (Millennium Pharmaceuticals, Inc., priority 2010, dated 2014).

Columns and labels:
[1] = target: T1, PI3Kalpha (Homo sapiens, UniProt P42336); experiment: Human PI3Kα enzyme assay (HTRF); assay type: biochemical; details: for inhibition at 1.11 µM: read-out: PI3Kalpha % inh; for PI3Kalpha % inh: at 1.11 μM
T1 construct: His (N); host or cells: SF9 insect cells (baculovirus)
Excerpt: (§1) The catalytic subunits of PI3Ks are cloned into either pDEST8(p110 alpha) or pDEST10(p110beta, p110delta, and p110gamma) as N-terminal His tagged fusion proteins using the Gateway system (Invitrogen, catalog#11804-010 for pDEST8 and 11806-015 for pDEST10). The sequences are verified before recombinant protein expression using the Baculovirus Expression System with Gateway® Technology. The accession numbers for the subunits are as follows:
(§2) The regulatory subunits of PI3Ks are cloned into pDEST8 as un-tagged protein using the Gateway system (Catalog#11804-010). The sequences are verified before recombinant protein expression using the Baculovirus Expression System with Gateway® Technology. The accession numbers for the subunits are as follows:
(§3) For expression of the p110 complexes, the p85 (MOI of 4) is co-infected with p110 alpha, beta, and delta respectively (1MOI) in SF9 cells and harvested at 60 hours post co-infection. P110 gamma was infected at 1 MOI and harvested at 60 hours post infection.
(§4) For purification, PI3Ks are purified by Ni-NTA Agarose (Qiagen #30250) followed by Mono Q 10/100 GL (Ge Healthcare #17-5167-01). VPS34 is purified by Glutathione Sepharose 4 Fast Flow (GE Healthcare #17-5132-03) followed by HiTrap Q (GE Healthcare #17-1153-01).
1) Human PI3Kα enzyme assay method
(§5) 0.5 uL compounds in DMSO are added to wells of a 384 well microtitre plate (Corning 3575). At room temperature: 10 ul PI3K reaction buffer (50 mM Hepes, 5 mM DTT, 150 mM NaCl, 10 mM beta-glycerophosphate, 10 mM MgCl2, 0.25 mM sodium cholate and 0.001% CHAPS, pH 7.00) containing ATP (25 uM, Promega) is added followed immediately by 10 ul PI3K reaction buffer containing di-C8 PI(4,5)P2 (3.5 uM, CellSignals) and PI3Kalpha (0.4875 nM, Millennium Protein Sciences Group) and the mixture is incubated with shaking at room temperature for 30 minutes. Then 5 ul PI3K stop mix (50 mM Hepes, 5 mM DTT, 150 mM NaCl, 0.01% Tween-20, 15 mM EDTA and 25 nM biotin-PI(3,4,5)P3 (Echelon) is added to quench the reaction followed immediately by addition of 5 ul HTRF detection mix (50 mM Hepes, 5 mM DTT, 150 mM NaCl, 0.01% Tween-20, 40 mM KF, 10 nM GST:GRP-1 PH domain (Millennium Protein Sciences Group), 15 nM Streptavidin-XL (CisBio) and 0.375 nM anti-GST Eu++ antibody (CisBio) at pH 7.00). The plates are then incubated for 1 hour at room temperature with shaking and then read on a BMG PheraStar Plus reader.

[2] = target: T2, PI3Kbeta (Homo sapiens, UniProt P42338); experiment: Human PI3K beta enzyme assay (HTRF, as for PI3K alpha); assay type: biochemical; details: for inhibition at 1.11 µM: read-out: PI3Kbeta % inh; for inhibition at 1.11 µM / PI3Kbeta % inh: at 1.11 μM; for IC50: read-out: IC50 (inhibit PI3Kbeta)
T2 construct: His (N); host or cells: SF9 insect cells (baculovirus)
T2 sequence (P42338 whole entry): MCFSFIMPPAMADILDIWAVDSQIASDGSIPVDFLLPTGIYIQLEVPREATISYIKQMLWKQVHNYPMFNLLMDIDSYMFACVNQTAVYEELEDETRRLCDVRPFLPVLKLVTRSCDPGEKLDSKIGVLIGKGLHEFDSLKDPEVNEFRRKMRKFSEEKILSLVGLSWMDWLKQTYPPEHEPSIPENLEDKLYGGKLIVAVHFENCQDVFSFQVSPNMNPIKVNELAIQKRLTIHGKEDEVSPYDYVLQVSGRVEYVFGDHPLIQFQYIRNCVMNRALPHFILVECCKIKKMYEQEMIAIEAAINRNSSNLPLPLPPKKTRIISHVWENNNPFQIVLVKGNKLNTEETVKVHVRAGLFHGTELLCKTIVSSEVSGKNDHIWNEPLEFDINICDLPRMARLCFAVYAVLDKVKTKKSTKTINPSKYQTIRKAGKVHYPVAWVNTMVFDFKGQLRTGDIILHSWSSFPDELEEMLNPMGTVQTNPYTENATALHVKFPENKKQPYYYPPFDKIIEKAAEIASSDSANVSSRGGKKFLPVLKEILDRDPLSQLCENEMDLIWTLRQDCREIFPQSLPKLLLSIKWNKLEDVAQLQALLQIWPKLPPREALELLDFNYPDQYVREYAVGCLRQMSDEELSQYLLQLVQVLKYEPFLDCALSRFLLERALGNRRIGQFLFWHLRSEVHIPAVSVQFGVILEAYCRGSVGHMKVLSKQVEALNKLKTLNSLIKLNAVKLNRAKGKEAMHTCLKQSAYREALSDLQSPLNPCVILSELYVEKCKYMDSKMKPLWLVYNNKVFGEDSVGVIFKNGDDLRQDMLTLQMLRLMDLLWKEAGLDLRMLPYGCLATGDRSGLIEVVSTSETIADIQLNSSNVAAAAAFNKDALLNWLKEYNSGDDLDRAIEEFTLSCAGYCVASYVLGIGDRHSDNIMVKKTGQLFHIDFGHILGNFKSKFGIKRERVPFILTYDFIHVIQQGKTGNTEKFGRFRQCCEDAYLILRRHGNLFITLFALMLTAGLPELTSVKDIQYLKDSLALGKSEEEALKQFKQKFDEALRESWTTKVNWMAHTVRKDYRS
T2 sequence (P27986 whole entry partner): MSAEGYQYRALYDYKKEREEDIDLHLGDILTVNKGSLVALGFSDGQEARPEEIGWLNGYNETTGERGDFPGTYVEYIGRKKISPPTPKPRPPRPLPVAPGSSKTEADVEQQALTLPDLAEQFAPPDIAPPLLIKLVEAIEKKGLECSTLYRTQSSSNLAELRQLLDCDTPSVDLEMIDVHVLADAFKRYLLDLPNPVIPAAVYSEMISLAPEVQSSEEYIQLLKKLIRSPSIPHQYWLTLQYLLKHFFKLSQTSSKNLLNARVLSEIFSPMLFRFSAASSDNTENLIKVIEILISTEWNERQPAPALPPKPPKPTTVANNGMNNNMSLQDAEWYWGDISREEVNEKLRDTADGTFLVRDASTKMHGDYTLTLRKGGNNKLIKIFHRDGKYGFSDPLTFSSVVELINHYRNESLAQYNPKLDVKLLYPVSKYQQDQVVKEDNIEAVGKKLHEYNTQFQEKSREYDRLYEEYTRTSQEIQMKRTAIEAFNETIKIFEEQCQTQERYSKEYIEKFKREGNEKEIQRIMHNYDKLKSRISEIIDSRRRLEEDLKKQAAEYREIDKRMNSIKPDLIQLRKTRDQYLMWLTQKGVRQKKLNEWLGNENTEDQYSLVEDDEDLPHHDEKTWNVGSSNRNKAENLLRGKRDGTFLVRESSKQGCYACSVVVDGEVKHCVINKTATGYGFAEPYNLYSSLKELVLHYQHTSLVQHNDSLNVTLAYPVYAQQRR
Excerpt: as §1, §2, §3, §4, §5
2) Human PI3K beta, delta and gamma isoforms are tested using the procedure described for PI3K alpha above but with the following changes: PI3K beta (5.25 nM), PI3K delta (0.75 nM) and PI3K gamma (5 nM). All isoforms supplied by Millennium Protein Science Group.

T1 sequence (P42336 whole entry): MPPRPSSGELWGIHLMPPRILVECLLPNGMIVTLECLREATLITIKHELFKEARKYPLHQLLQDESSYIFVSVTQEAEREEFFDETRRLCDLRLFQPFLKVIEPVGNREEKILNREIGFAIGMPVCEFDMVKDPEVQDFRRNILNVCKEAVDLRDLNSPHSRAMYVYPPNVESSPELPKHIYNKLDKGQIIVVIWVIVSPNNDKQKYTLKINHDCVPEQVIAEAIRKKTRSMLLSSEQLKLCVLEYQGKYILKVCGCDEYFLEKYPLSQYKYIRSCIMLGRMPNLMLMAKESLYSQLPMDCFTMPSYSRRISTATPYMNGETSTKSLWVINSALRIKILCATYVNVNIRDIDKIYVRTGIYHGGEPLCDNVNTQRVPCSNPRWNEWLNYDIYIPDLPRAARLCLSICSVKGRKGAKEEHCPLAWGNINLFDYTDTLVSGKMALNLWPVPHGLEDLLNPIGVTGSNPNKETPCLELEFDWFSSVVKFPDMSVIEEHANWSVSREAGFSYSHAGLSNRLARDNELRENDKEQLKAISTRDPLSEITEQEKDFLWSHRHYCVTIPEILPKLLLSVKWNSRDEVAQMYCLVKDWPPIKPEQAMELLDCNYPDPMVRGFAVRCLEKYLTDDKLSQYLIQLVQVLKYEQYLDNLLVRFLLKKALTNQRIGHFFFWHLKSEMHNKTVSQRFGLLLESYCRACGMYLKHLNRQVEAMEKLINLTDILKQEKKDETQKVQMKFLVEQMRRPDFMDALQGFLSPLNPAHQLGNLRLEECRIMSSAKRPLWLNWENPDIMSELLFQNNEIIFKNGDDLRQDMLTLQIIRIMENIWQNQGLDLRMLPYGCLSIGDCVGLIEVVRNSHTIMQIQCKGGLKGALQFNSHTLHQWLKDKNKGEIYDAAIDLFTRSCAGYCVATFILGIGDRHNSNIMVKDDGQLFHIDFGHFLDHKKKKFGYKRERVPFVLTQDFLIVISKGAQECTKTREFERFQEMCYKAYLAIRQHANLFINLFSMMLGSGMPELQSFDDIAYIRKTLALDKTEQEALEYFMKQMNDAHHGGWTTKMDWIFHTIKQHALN
T1 sequence (P27986 whole entry partner): as the sequence (P27986 whole entry partner) above

SMILES | inhibition at 1.11 µM [1] | inhibition at 1.11 µM [2] | PI3Kalpha % inh [1] | PI3Kbeta % inh [2] | IC50 [2]
COC(=O)[C@@H]1NC(=O)c2sc(N3CCOCC3)cc2[C@H]1c1ccc(Cl)c(Cl)c1 (relative stereo) [Compound 127, methyl rel-(4R,5R)-4-(3,4-dichlorophenyl)-2-(morpholin-4-yl)-7-oxo-4,5,6,7-tetrahydrothieno[2,3-c]pyridine-5-carboxylate] | 31.4% | 75.8% | – | – | –
CNC(=O)[C@@H]1NC(=O)c2sc(-c3ccnc(C)c3)cc2[C@H]1c1ccc(Cl)cc1 (relative stereo) [Compound 138, rel-(4R,5R)-4-(4-chlorophenyl)-N-methyl-2-(2-methylpyridin-4-yl)-7-oxo-4,5,6,7-tetrahydrothieno[2,3-c]pyridine-5-carboxamide] | 7.29% | 64.6% | – | – | –
O=C1N[C@@H](C(=O)O)[C@H](c2ccc(Cl)c(Cl)c2)c2cc(N3CCOCC3)sc21 (relative stereo) [Compound 142, rel-(4R,5R)-4-(3,4-dichlorophenyl)-2-(morpholin-4-yl)-7-oxo-4,5,6,7-tetrahydrothieno[2,3-c]pyridine-5-carboxylic acid] | 16.7% | 72% | – | – | –
O=C1CCC(c2ccc(Cl)cc2)c2cc(-c3ccncc3)sc21 (single isomer, unassigned) [Compound 4, 4-(4-chlorophenyl)-2-pyridin-4-yl-5,6-dihydro-1-benzothiophen-7(4H)-one] | – | – | −0.100% | 14.400% | > 1 µM
O=C1NCC(c2ccc(Cl)cc2)c2c1sc(N1CCOCC1)c2C#Cc1ccccc1 (single isomer, unassigned) [Compound 137, 4-(4-chlorophenyl)-2-(morpholin-4-yl)-3-(phenylethynyl)-5,6-dihydrothieno[2,3-c]pyridin-7(4H)-one] | 16.1% | 80.8% | – | – | –
C=Cc1c(N2CCOCC2)sc2c1C(c1ccc(Cl)cc1)CNC2=O (single isomer, unassigned) [Compound 143, 4-(4-chlorophenyl)-2-(morpholin-4-yl)-3-vinyl-5,6-dihydrothieno[2,3-c]pyridin-7(4H)-one] | 10% | 82.5% | – | – | –
O=C1NCC(c2ccc(Cl)cc2)c2c1sc(N1CCOCC1)c2CO (single isomer, unassigned) [Compound 178, 4-(4-chlorophenyl)-3-(hydroxymethyl)-2-(morpholin-4-yl)-5,6-dihydrothieno[2,3-c]pyridin-7(4H)-one] | 4.71% | 40.2% | – | – | –
O=C1NCC(c2ccc(Cl)cc2)c2c1sc(N1CCOCC1)c2Br (single isomer, unassigned) [Compound 181, 3-bromo-4-(4-chlorophenyl)-2-(morpholin-4-yl)-5,6-dihydrothieno[2,3-c]pyridin-7(4H)-one] | 8.59% | 69.5% | – | – | –
O=Cc1c(N2CCOCC2)sc2c1C(c1ccc(Cl)cc1)CNC2=O (single isomer, unassigned) [Compound 193, 4-(4-chlorophenyl)-2-(morpholin-4-yl)-7-oxo-4,5,6,7-tetrahydrothieno[2,3-c]pyridine-3-carbaldehyde] | 11.1% | 79.1% | – | – | –
CC1(C)CC(=O)c2sc(-c3ccncc3)cc2C1(O)c1ccc(Cl)cc1 (stereo not shown) [Compound 5, 4-(4-chlorophenyl)-4-hydroxy-5,5-dimethyl-2-pyridin-4-yl-5,6-dihydro-1-benzothiophen-7(4H)-one] | -3.8% | 32.8% | – | – | > 1 µM
O=C1OC2(CCC(=O)c3sc(-c4ccncc4)cc32)c2ccc(Cl)cc21 (stereo not shown) [Compound 14, 5-chloro-2′-pyridin-4-yl-5′,6′-dihydro-3H,7′H-spiro[2-benzofuran-1,4′-[1]benzothiophene]-3,7′-dione] | 8.7% | 31.9% | – | – | > 1 µM
CC(=O)Nc1cc(-c2cc3c(s2)C(=O)CC3c2ccc(Cl)cc2)ccn1 (stereo not shown) [Compound 16, N-(4-(4-(4-chlorophenyl)-6-oxo-5,6-dihydro-4H-cyclopenta[b]thiophen-2-yl)pyridin-2-yl)acetamide] | 24.5% | 54.5% | – | – | 0.1 to 1 µM
N#Cc1c(N2CCOCC2)sc2c1C(c1ccc(Cl)c(Cl)c1)CCNC2=O (stereo not shown) [Compound 116] | – | – | 36.43% | 66.61% | –
O=C1N[C@@H](CO)CC(c2ccc3ccccc3c2)c2nc(N3CCOCC3)sc21 (stereo partly shown) [Compound 120] | – | – | 12.90% | 44.05% | –
CNC(=O)[C@@H]1NC(=O)c2sc(C3=CCOCC3)cc2[C@H]1c1ccc(Cl)cc1 [Compound 121] | – | – | 40.77% | 104.98% | –
O=C1NCC(c2ccc(Cl)cc2)c2c1sc(N1CCOCC1)c2C#Cc1cccnc1 (stereo not shown) [Compound 122] | 97.8% | 128% | – | – | –
CN(C)CC#Cc1c(N2CCOCC2)sc2c1C(c1ccc(Cl)cc1)CNC2=O (stereo not shown) [Compound 130] | 58.1% | 116% | – | – | –
O=C1NCCC(c2ccc3ccccc3c2)c2nc(N3CCOCC3)sc21 (stereo not shown) [Compound 131] | – | – | 9.87% | 85.03% | –
CNC(=O)[C@@H]1NC(=O)c2sc(N3CCOCC3)cc2[C@H]1c1ccc(Cl)c(Cl)c1 [Compound 132] | 54% | 115% | – | – | –
N#Cc1c(N2CCOCC2)sc2c1C(c1ccc3ccccc3c1)CNC2=O (stereo not shown) [Compound 135, 2-(morpholin-4-yl)-4-(2-naphthyl)-7-oxo-4,5,6,7-tetrahydrothieno[2,3-c]pyridine-3-carbonitrile] | 89.8% | 121% | – | – | –
COC(=O)C1C(=O)c2sc(N3CCOCC3)cc2C1c1ccc(Cl)c(Cl)c1 (stereo not shown) [Compound 139, methyl 4-(3,4-dichlorophenyl)-2-(morpholin-4-yl)-6-oxo-5,6-dihydro-4H-cyclopenta[b]thiophene-5-carboxylate] | 14.4% | 95.6% | – | – | –
C=CCC1(C(=O)OC)NC(=O)c2sc(N3CCOCC3)cc2C1c1ccc(Cl)c(Cl)c1 (stereo not shown) [Compound 154, methyl 5-allyl-4-(3,4-dichlorophenyl)-2-(morpholin-4-yl)-7-oxo-4,5,6,7-tetrahydrothieno[2,3-c]pyridine-5-carboxylate] | 10.9% | 75.5% | – | – | –
CNC(=O)[C@H]1NC(=O)c2sc(N3CCOCC3)cc2[C@H]1c1ccc(Cl)cc1 [Compound 157] | 30.1% | 111% | – | – | –
N#Cc1c(N2CCOCC2)sc2c1C(c1ccc(Cl)c(Cl)c1)CNC2=O (stereo not shown) [Compound 159] | 67.2% | 118% | – | – | –
CNC(=O)[C@@H]1NC(=O)c2sc(-c3ccncc3)cc2[C@H]1c1ccc(Cl)cc1 [Compound 160] | – | – | 11.18% | 76.80% | –
O=C1NCCC(c2ccc3ccncc3c2)c2nc(N3CCOCC3)sc21 (stereo not shown) [Compound 165] | 13.3% | 109% | – | – | –
C=CCN1C(=O)c2sc(N3CCOCC3)cc2C(c2ccc(Cl)c(Cl)c2)C1C(=O)OC (stereo not shown) [Compound 166, methyl 6-allyl-4-(3,4-dichlorophenyl)-2-(morpholin-4-yl)-7-oxo-4,5,6,7-tetrahydrothieno[2,3-c]pyridine-5-carboxylate] | 7.59% | 69.2% | – | – | –
NC(=O)c1cc(C2CCNC(=O)c3sc(N4CCOCC4)nc32)ccc1Cl (stereo not shown) [Compound 167] | 5.27% | 81.2% | – | – | –
CNC(=O)c1[nH]c(=O)c2sc(N3CCOCC3)cc2c1-c1ccc(Cl)cc1 [Compound 168] | 74.5% | 117% | – | – | –
O=C1OC2(CCNC(=O)c3sc(N4CCOCC4)nc32)c2ccc(Cl)cc21 (stereo not shown) [Compound 172, 5-chloro-2′-(morpholin-4-yl)-6′,7′-dihydro-3H-spiro[2-benzofuran-1,8′-[1,3]thiazolo[5,4-c]azepine]-3,4′(5′H)-dione] | 16.1% | 49.3% | – | – | –
